Earlier results, collected in patent EP0086468A2, “Oral anti-diabetic preparation” (HOECHST UK LIMITED, priority 1982, dated 1983).

System: plasma glucose
Details: intravenous bolus injection, published data

COc1ccc(Cl)cc1C(=O)NCCc1ccc(S(=O)(=O)NC(=O)NC2CCCCC2)cc1 [glibenclamide]
nadir in plasma glucose levels, time after injection: about 40 minutes
